Measured values published in patent US12168805B2, “Methods and reagents for detecting piperaquine-resistant plasmodium falciparum malaria” (priority 2016, dated 2024).

Columns and labels:
[1] = tested on: culture-adapted P. falciparum parasite lines; assay: in-vitro Piperaquine Survival Assay (PSA) on culture-adapted parasites; format: cell-based, Plasmodium falciparum; conditions: for in-vitro PSA survival rate (%): 200 nM PPQ for 48 hours
Method: (§1) Cryopreserved parasites were culture-adapted as described.^12 Susceptibility to PPQ was investigated using in-vitro PSA for culture-adapted parasites and ex-vivo PSA for fresh isolates. Survival rates were assessed microscopically and parasites with a survival rate ≥10% were considered PPQ-resistant.^7 msp1, msp2 and glurp polymorphisms were determined to distinguish recrudescent from new infections.^13 Sequencing of the K13-propeller domain was used to screen for ART-resistance.^1 Whole-genome sequencing was performed using Illumina paired-reads sequencing.^1 Data were integrated into the Whole-genome Data Manager (WDM) database^14 and exomes of PPQ-resistant and -sensitive lines were compared after excluding low-coverage positions (i.e., lower than 25% of the genome-wide mean coverage). Genes from highly variable multigene families (var, rifin, phist and stevor) were excluded.^1 CNVs and SNPs were investigated using PlasmoCNVScan and Phen2gen software (see below). 1+PfPM2 and Pfmdr1 copy number was determined by qPCR (see below). Steady-state PfPM2 mRNA levels were measured by RT-qPCR (see below) and PfPM2 protein expression by immunoblotting (see below).
In-vitro susceptibility to PPQ was investigated using the in-vitro or the ex-vivo PSA, which is based on exposing very early ring-stage parasites to 200 nM PPQ for 48 hours, washing away the drug, and assessing parasite growth after a further 24 hours of culture. Survival rates at the 72 hour time point were assessed microscopically by counting the proportion of viable parasites in exposed and non-exposed cultures that developed into second-generation rings or trophozoites with normal morphology. Parasites with a survival rate ≥10% were considered PPQ-resistant.^5

[2] = tested on: freshly collected P. falciparum patient isolates; assay: ex-vivo Piperaquine Survival Assay (PSA) on fresh isolates; format: cell-based, Plasmodium falciparum
Method: Blood samples were collected into acid-citrate-dextrose tubes (Becton-Dickinson, USA) before treatment and sent to Institut Pasteur in Cambodia within 24 hours. A sub-set of freshly collected samples was used to perform the ex-vivo PSA.^7 All samples were cryopreserved in glycerolyte. Red cell pellets were stored at −20° C. for molecular studies. Blood spots were prepared on day 0 and when applicable on the day of recrudescence.
as §1, with “Genes from highly variable multigene families (var, rifin, phist and stevor) were excluded.^1 CNVs and SNPs were investigated using PlasmoCNVScan and Phen2gen software (see below).” left out, “Steady-state PfPM2 mRNA levels were measured by RT-qPCR (see below) and PfPM2 protein expression by immunoblotting (see below).” left out

Clc1ccc2c(N3CCN(CCCN4CCN(c5ccnc6cc(Cl)ccc56)CC4)CC3)ccnc2c1 [PPQ, piperaquine]
in-vitro susceptibility to PPQ ([1]; 3D7 reference line): Sensitive (sensitive if survival rates were <10%)
in-vitro PSA survival rate (%) ([1]; 3D7 reference line, survival at 72 hour): 0.1%
In-vitro PSA survival rate, PSA mean value ([1]; one sequence with DNA expansion type 3): 39.3%
in-vitro susceptibility to PPQ ([1]; parasite line 6218): Resistant (resistant if survival rates were ≥10%)
in-vitro PSA survival rate (%) ([1]; parasite line 6218 (2012, Battambang)): 40.8%
in-vitro susceptibility to PPQ ([1]; parasite line 6219): Resistant (resistant if survival rates were ≥10%)
in-vitro PSA survival rate (%) ([1]; parasite line 6219 (2012, Battambang)): 58.6%
in-vitro susceptibility to PPQ ([1]; parasite line 6224): Resistant (resistant if survival rates were ≥10%)
in-vitro PSA survival rate (%) ([1]; parasite line 6224 (2012, Pursat)): 61.4%
in-vitro susceptibility to PPQ ([1]; parasite line 6229): Resistant (resistant if survival rates were ≥10%)
in-vitro PSA survival rate (%) ([1]; parasite line 6229 (2012, Battambang)): 46.6%
in-vitro susceptibility to PPQ ([1]; parasite line 6237): Sensitive (sensitive if survival rates were <10%)
in-vitro PSA survival rate (%) ([1]; parasite line 6237 (2012, Kampong Thom)): 0.8%
in-vitro susceptibility to PPQ ([1]; parasite line 6246): Resistant (resistant if survival rates were ≥10%)
in-vitro PSA survival rate (%) ([1]; parasite line 6246 (2012, Kampong Speu)): 36.9%
in-vitro susceptibility to PPQ ([1]; parasite line 6261): Resistant (resistant if survival rates were ≥10%)
in-vitro PSA survival rate (%) ([1]; parasite line 6261 (2012, Pursat)): 70.5%
in-vitro susceptibility to PPQ ([1]; parasite line 6267): Sensitive (sensitive if survival rates were <10%)
in-vitro PSA survival rate (%) ([1]; parasite line 6267 (2012, Kampong Speu)): 0.5%
in-vitro susceptibility to PPQ ([1]; parasite line 6272): Resistant (resistant if survival rates were ≥10%)
in-vitro PSA survival rate (%) ([1]; parasite line 6272 (2012, Battambang)): 40.0%
in-vitro susceptibility to PPQ ([1]; parasite line 6273): Sensitive (sensitive if survival rates were <10%)
in-vitro PSA survival rate (%) ([1]; parasite line 6273 (2012, Kampong Speu)): 0.2%
in-vitro susceptibility to PPQ ([1]; parasite line 6280): Resistant (resistant if survival rates were ≥10%)
in-vitro PSA survival rate (%) ([1]; parasite line 6280 (2012, Battambang)): 28.9%
in-vitro susceptibility to PPQ ([1]; parasite line 6293): Resistant (resistant if survival rates were ≥10%)
in-vitro PSA survival rate (%) ([1]; parasite line 6293 (2012, Battambang)): 39.3%
in-vitro susceptibility to PPQ ([1]; parasite line 6302): Resistant (resistant if survival rates were ≥10%)
in-vitro PSA survival rate (%) ([1]; parasite line 6302 (2012, Battambang)): 42.5%
in-vitro susceptibility to PPQ ([1]; parasite line 6320): Resistant (resistant if survival rates were ≥10%)
in-vitro PSA survival rate (%) ([1]; parasite line 6320 (2012, Battambang)): 62.1%
in-vitro susceptibility to PPQ ([1]; parasite line 6337): Sensitive (sensitive if survival rates were <10%)
in-vitro PSA survival rate (%) ([1]; parasite line 6337 (2012, Kampong Speu)): 0.4%
in-vitro susceptibility to PPQ ([1]; parasite line 6341): Resistant (resistant if survival rates were ≥10%)
in-vitro PSA survival rate (%) ([1]; parasite line 6341 (2012, Pursat)): 25.8%
in-vitro susceptibility to PPQ ([1]; parasite line 6349): Sensitive (sensitive if survival rates were <10%)
in-vitro PSA survival rate (%) ([1]; parasite line 6349 (2012, Kampong Thom)): 0.6%
in-vitro susceptibility to PPQ ([1]; parasite line 6365): Resistant (resistant if survival rates were ≥10%)
in-vitro PSA survival rate (%) ([1]; parasite line 6365 (2012, Battambang)): 51.8%
in-vitro susceptibility to PPQ ([1]; parasite line 6369): Sensitive (sensitive if survival rates were <10%)
in-vitro PSA survival rate (%) ([1]; parasite line 6369 (2012, Pursat)): 6.4%
in-vitro susceptibility to PPQ ([1]; parasite line 6391): Resistant (resistant if survival rates were ≥10%)
in-vitro PSA survival rate (%) ([1]; parasite line 6391 (2012, Battambang)): 39.4%
in-vitro susceptibility to PPQ ([1]; parasite line 6394): Resistant (resistant if survival rates were ≥10%)
in-vitro PSA survival rate (%) ([1]; parasite line 6394 (2012, Battambang)): 56.7%
in-vitro susceptibility to PPQ ([1]; parasite line 6395): Resistant (resistant if survival rates were ≥10%)
in-vitro PSA survival rate (%) ([1]; parasite line 6395 (2012, Battambang)): 19.2%
in-vitro susceptibility to PPQ ([1]; parasite line 6403): Sensitive (sensitive if survival rates were <10%)
in-vitro PSA survival rate (%) ([1]; parasite line 6403 (2012, Pursat)): 0.5%
in-vitro susceptibility to PPQ ([1]; parasite line 6408): Resistant (resistant if survival rates were ≥10%)
in-vitro PSA survival rate (%) ([1]; parasite line 6408 (2012, Battambang)): 58.7%
in-vitro susceptibility to PPQ ([1]; parasite line 6410): Sensitive (sensitive if survival rates were <10%)
in-vitro PSA survival rate (%) ([1]; parasite line 6410 (2012, Battambang)): 6.0%
in-vitro susceptibility to PPQ ([1]; parasite line 6411): Resistant (resistant if survival rates were ≥10%)
in-vitro PSA survival rate (%) ([1]; parasite line 6411 (2012, Battambang)): 71.6%
in-vitro susceptibility to PPQ ([1]; parasite line 6427): Resistant (resistant if survival rates were ≥10%)
in-vitro PSA survival rate (%) ([1]; parasite line 6427 (2012, Battambang)): 77.4%
in-vitro susceptibility to PPQ ([1]; parasite line 6429): Resistant (resistant if survival rates were ≥10%)
in-vitro PSA survival rate (%) ([1]; parasite line 6429 (2012, Pursat)): 51.8%
in-vitro susceptibility to PPQ ([1]; parasite line 6430): Resistant (resistant if survival rates were ≥10%)
in-vitro PSA survival rate (%) ([1]; parasite line 6430 (2012, Battambang)): 51.3%
in-vitro susceptibility to PPQ ([1]; parasite line 6431): Resistant (resistant if survival rates were ≥10%)
in-vitro PSA survival rate (%) ([1]; parasite line 6431 (2012, Battambang)): 61.5%
in-vitro susceptibility to PPQ ([1]; parasite line 6443): Resistant (resistant if survival rates were ≥10%)
in-vitro PSA survival rate (%) ([1]; parasite line 6443 (2012, Battambang)): 49.6%
In-vitro PSA survival rate, PSA mean value ([1]; parasites harboring DNA expansion type 1 (N=13)): 44.8%
In-vitro PSA survival rate, PSA mean value ([1]; parasites harboring DNA expansion type 2 (N=6)): 64.9%
In-vitro PSA survival rate, PSA mean value ([1]; parasites harboring DNA expansion type 4 (N=2)): 16.2%
median ex-vivo PSA survival rate ([2]; isolates with unamplified (single copy) PfPM2): 0.004%
median ex-vivo PSA survival rate ([2]; isolates with ≥2 PfPM2 copies): 51.7%
